Where two headings read alike, the source gives them in different places.
Tests used:
[1] = in vitro; conditions: mouse, liver microsomes
Experimental: The final concentration of the substrate in the incubation system was 1 µM, and the incubation time was 60 min. Sampling was performed at 0 min, 5 min, 15 min, 30 min, and 60 min. The reaction was stopped with glacial acetonitrile containing an internal standard (testosterone-d3 at a concentration of 10 ng/mL). Verapamil was used as a positive control. […] The natural logarithm of the remaining percentage was subjected to linear fitting with time to determine the elimination rate constant (k).

[2] = tested on: NCI-H929; assay: In vitro anti-tumor activity of molecular glue compounds, CellTiter-Lumi cell viability assay; type: cell-based; conditions: Homo sapiens; NCI-H929 cells, 96 h incubation; read-out: Cell inhibitory activity (IC50 values) NCI-H929
Experimental: (§1) Different tumor cells were all commercially available and used for evaluating the anti-tumor inhibitory activity of the compounds of the present disclosure. Various tumor cells were cultured until the cell confluency reached 80%-90%, with cell viability above 90% as determined by trypan blue exclusion. Then, the cells were plated. Specifically, after cell density optimization, 100 µL of each of the cell suspensions of HL-60 and SK-BR-3 cells (cell density: 3000 cells/well), Romas cells (cell density: 6000 cells/well), NCI-H929 cells (cell density: 4000 cells/well), and NCI-H82 cells (cell density: 5000 cells/well) was plated in a BeyoGold™ ultra-low attachment black clear-bottom 96-well plate (Cat. No.: FULA965-24pcs), and the plate was incubated overnight. The next day, after the adherent cells were adhered to the wall and suspension cells requiring aggregation were aggregated, 50 µL of culture medium was aspirated from each well of the 96-well plate. Then, the compounds diluted with the corresponding culture media were added. Specifically, the compounds were serially diluted at a 5-fold gradient starting from the highest concentration of 1 µM, with a final DMSO concentration of 1%o, and the test compounds were then added to the cell culture plate. The plate was incubated in an incubator at 37 °C with 5% carbon dioxide for 96 h. Before measurement, the CellTiter-Lumi™ luminescent cell viability assay reagent was equilibrated to room temperature in the dark. Then, 50 µL of the CellTiter-Lumi™ (Cat. No.: C0065XL) cell viability assay reagent was added to each well of the 96-well plate. The plate was shaken in the dark on a shaker at 300 rpm for 10 min to ensure complete cell lysis. After the reaction was completed, the luminescence was measured on a multi-mode microplate reader. The cell inhibition rate was determined according to the luminescence. Then, a cell viability curve was generated by Graphpad Prism 8.0, and the IC50 values were calculated. The compounds of the present disclosure were tested for activity by the method described above. Table 1. Cell inhibitory activity (IC50 values)

[3] = tested on: HL-60; assay: as above; type: cell-based; conditions: Homo sapiens; HL-60 cells, 96 h incubation; read-out: Cell inhibitory activity (IC50 values) HL-60
Experimental: as §1

[4] = tested on: NCI-H82; assay: as above; type: cell-based; conditions: Homo sapiens; NCI-H82 cells, 96 h incubation; read-out: Cell inhibitory activity (IC50 values) NCI-H82
Experimental: as §1

[5] = tested on: SK-BR-3; assay: as above; type: cell-based; conditions: Homo sapiens, SK-BR-3 cells
Experimental: as §1

[6] = tested on: Romas; assay: as above; type: cell-based; conditions: Romas cells, 96 h incubation; read-out: Cell inhibitory activity (IC50 values) Romas
Experimental: as §1

For `O=C1CCC(N2Cc3cc(CNC(=O)Nc4ccc(CCCOC5CCCNC5)c(Cl)c4)ccc3C2=O)C(=O)N1` (centres unmarked) [Compound B19], the CLint scaled at 1 µM [1] was 17 mL/min/kg, the half-life at 1 µM [1] was 5.48 h and the IC50 [2] was less than 10 nM. For the same compound, the IC50 [3] was less than 10 nM, the IC50 [4] was 10 to 50 nM and the IC50 ([5]; 96 h incubation, read-out: Cell inhibitory activity (IC50 values) SK-BR-3) was less than 10 nM. The IC50 ([5]; read-out: SK-BR-3 IC50) was 3.62 nM and the IC50 [6] was less than 10 nM.

Source: patent publication EP4667463A1, “DOMIDE MOLECULAR GLUE DERIVATIVE AND USE THEREOF” (CSPC Megalith Biopharmaceutical Co., Ltd., priority 2023, dated 2024)
